# Results reported in patent publication US12070513B2, “PSMA-binding agents and uses thereof” (The Johns Hopkins University, priority 2008, dated 2024).
# Values joined by “and” are separate entries in the source; they are usually repeats but may differ in a detail not shown here. Equal entries are not always repeated. “Also recorded” adds a separate entry of the source.
# Legend:
# [1] = biological target: PSMA, lysates of LNCaP cell extracts (Homo sapiens (Human), UniProt Q04609); test: fluorescence-based PSMA inhibition assay (Amplex Red glutamic acid kit); type: biochemical; conditions: 4 μM NAAG
# [2] = biological target: NAALADase (PSMA) prepared from LNCaP cell lysates (Homo sapiens (Human), UniProt Q04609); test: NAALADase (radiometric) assay, NAAG hydrolysis; type: biochemical; conditions: [3H]NAAG 30 nM
# [3] = test system: PC-3 PIP (PSMA+) and PC-3 flu (PSMA−) xenograft-bearing SCID mice; test: Ex vivo biodistribution in tumor-bearing mice
# [4] = Stability of radiolabeled product after synthesis; type: physicochemical; conditions: after radiosynthesis and HPLC
# Description: Synthesis of 2-[3-(1-carboxy-5-{4-[N′-(4-[^18F]fluoro-benzylidene)-hydrazino]-benzoylamino}-pentyl)-ureido]-pentanedioic acid (^18F]12). 4-[^18F]fluorobenzaldehyde was synthesized by using a known procedure (Nuclear Medicine and Biology 33 (2006) 677-683). To the crude DMSO solution of 4-[^18F]fluorobenzaldehyde was added 1-2 mg of compound 14, 0.2 mL of 50 mM KH2PO4. The vial was closed and heated at 90° C. for […]. The reaction mixture was then purified by HPLC (Ecomosphere C18 10μ, 250×10 mm, H2O/CH3CN/TFA [70/30/0.1], 4 mL/min). The radiochemical yield (decay corrected and based on starting [^18F] fluoride, n=2) was 30-55%. […] The specific activity of final compound was not determined.
# [5] = test system: PC-3 PIP and PC-3 flu xenografts in SCID mouse; test: PET-CT imaging of [18F]6; type: in vivo; conditions: 94-120 min p.i., PC-3 PIP and PC-3 flu tumors
# Description: Compound [^18F]6. In vivo PET-CT: A SCID mouse bearing subcutaneous PC-3 PIP and PC-3 flu xenografts was anesthetized using 3% isoflurane in oxygen for induction and 1.5% isoflurane in oxygen at 0.8 L/min flow for maintenance and positioned prone on the gantry of a GE eXplore Vista small animal PET scanner (GE Healthcare, Milwaukee, Wis.). The mouse was injected intravenously with 7.4 MBq (200 μCi) of [^18F]6 followed by image acquisition using the following protocol: The images were acquired as a pseudodynamic scan, i.e., a sequence of successive whole-body images acquired in three bed positions for a total of 90 min. The dwell time at each position was 5 minutes, such that a given bed position (or mouse organ) was revisited every 15 min. An energy window of 250-700 keV was used. Images were reconstructed using the FORE/2D-OSEM method (2 iterations, 16 subsets) and included corrections for radioactive decay, scanner dead time and scattered radiation.
# [6] = test system: PC-3 PIP and PC-3 flu xenografts in SCID mouse; test: SPECT-CT imaging of [125I]3 in PCa tumor models; type: in vivo; conditions: 4 h p.i., PC-3 PIP and PC-3 flu tumors
# Description: At 4 and 6 h p.i. the mouse was anesthetized with isoflurane and maintained under 1% isoflurane in oxygen. The mouse was positioned on the X-SPECT (Gamma Medica, Northridge, Calif.) gantry and was scanned using two low energy, high-resolution pinhole collimators (Gamma Medica) rotating through 360° in 6° increments for 45 seconds per increment. All gamma images were reconstructed using Lunagem software (Gamma Medica, Northridge, Calif.) Immediately following SPECT acquisition, the mice were then scanned by CT (X-SPECT) over a 4.6 cm field-of-view using a 600 μA, 50 kV beam. […] Data were reconstructed using the Ordered Subsets-Expectation Maximization (OS-EM) algorithm.
# Chain of PSMA, lysates of LNCaP cell extracts (Q04609 whole entry): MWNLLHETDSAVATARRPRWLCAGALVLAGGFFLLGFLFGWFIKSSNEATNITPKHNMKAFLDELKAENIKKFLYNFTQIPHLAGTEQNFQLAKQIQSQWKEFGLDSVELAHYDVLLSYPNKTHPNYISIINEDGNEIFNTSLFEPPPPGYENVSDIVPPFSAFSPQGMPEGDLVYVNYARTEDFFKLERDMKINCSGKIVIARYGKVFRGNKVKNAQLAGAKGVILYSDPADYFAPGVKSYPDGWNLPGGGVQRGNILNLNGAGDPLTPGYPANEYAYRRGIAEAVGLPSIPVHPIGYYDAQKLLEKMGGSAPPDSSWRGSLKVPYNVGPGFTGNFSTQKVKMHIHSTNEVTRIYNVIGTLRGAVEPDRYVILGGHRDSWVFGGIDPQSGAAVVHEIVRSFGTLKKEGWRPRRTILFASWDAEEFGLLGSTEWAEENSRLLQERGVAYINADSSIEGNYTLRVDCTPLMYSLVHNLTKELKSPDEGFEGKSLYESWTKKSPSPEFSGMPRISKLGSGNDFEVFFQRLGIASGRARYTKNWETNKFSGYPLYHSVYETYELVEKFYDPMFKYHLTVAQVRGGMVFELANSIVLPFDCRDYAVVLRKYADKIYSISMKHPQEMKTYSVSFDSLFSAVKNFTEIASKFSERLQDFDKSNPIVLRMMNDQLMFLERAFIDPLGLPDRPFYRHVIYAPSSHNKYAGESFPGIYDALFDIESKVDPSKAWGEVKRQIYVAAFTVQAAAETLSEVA
smiles,measurement,setting,value
"O=C(O)CCC(NC(=O)NC(CCCCNC(=O)c1ccc(F)cc1)C(=O)O)C(=O)O (stereo not drawn) [Compound 6, 2-{3-[1-Carboxy-5-(4-fluoro-benzoylamino)-pentyl]-ureido}-pentanedioic acid]",Ki,[1],0.194 nM
same,Ki,[2],0.256 nM
same,PIP:flu ratio,[3]; 5 h p.i.,31
"O=C(O)CCC(NC(=O)NC(CCCCNC(=O)c1ccc(NN=Cc2ccc(F)cc2)cc1)C(=O)O)C(=O)O (stereo not drawn) [Compound 12, 2-[3-(1-carboxy-5-{4-[N′-(4-fluoro-benzylidene)-hydrazino]-benzoylamino}-pentyl)-ureido]-pentanedioic acid]",stability of compound after preparation,[4],decomposed soon after been made
"O=C(O)CCC(NC(=O)NC(CCCCNC(=O)c1ccc([18F])cc1)C(=O)O)C(=O)O (stereo not drawn) [[^18F]6, 2-{3-[1-carboxy-5-(4-[^18F]fluoro-benzoylamino)-pentyl]-ureido}-pentanedioic acid]",PC-3 PIP tumor uptake,[3]; 30 min p.i.,8.58±3.09 % ID/g and 8.6 ± 3.1 % ID/g
same,PC-3 flu tumor uptake,[3]; 30 min p.i.,0.8 ± 0.3 % ID/g
same,PIP tumor:bladder ratio,[3]; 30 min p.i.,(1)
same,PIP tumor:blood ratio,[3]; 30 min p.i.,(3)
same,PIP tumor:heart ratio,[3]; 30 min p.i.,(11)
same,PIP tumor:kidney ratio,[3]; 30 min p.i.,(0.1)
same,PIP tumor:large intestine ratio,[3]; 30 min p.i.,(7)
same,PIP tumor:liver ratio,[3]; 30 min p.i.,(1)
same,PIP tumor:lung ratio,[3]; 30 min p.i.,(5)
same,PIP tumor:muscle ratio,[3]; 30 min p.i.,(4)
same,PIP tumor:pancreas ratio,[3]; 30 min p.i.,(11)
same,PIP tumor:small intestine ratio,[3]; 30 min p.i.,(5)
same,PIP tumor:spleen ratio,[3]; 30 min p.i.,(0.7)
same,PIP tumor:stomach ratio,[3]; 30 min p.i.,(11)
same,PIP:flu ratio,[3]; 30 min p.i.,11
same,bladder uptake,[3]; 30 min p.i.,6.8 ± 3.5 % ID/g
same,blood uptake,[3]; 30 min p.i.,2.5 ± 1.7 % ID/g
same,heart uptake,[3]; 30 min p.i.,0.8 ± 0.1 % ID/g
same,kidney uptake,[3]; 30 min p.i.,72.05±3.19 % ID/g and 72 ± 3 % ID/g
same,large intestine uptake,[3]; 30 min p.i.,1.2 ± 0.8 % ID/g
same,liver uptake,[3]; 30 min p.i.,8.7 ± 1.8 % ID/g
same,lung uptake,[3]; 30 min p.i.,1.7 ± 0.3 % ID/g
same,muscle uptake,[3]; 30 min p.i.,2.4 ± 3.1 % ID/g
same,pancreas uptake,[3]; 30 min p.i.,0.8 ± 0.1 % ID/g
same,small intestine uptake,[3]; 30 min p.i.,1.7 ± 0.7 % ID/g
same,spleen uptake,[3]; 30 min p.i.,12.67±0.36 % ID/g and 12.7 ± 0.4 % ID/g
same,stomach uptake,[3]; 30 min p.i.,0.8 ± 0.1 % ID/g
same,PC-3 PIP tumor uptake,[3]; 60 min p.i.,6.4 ± 0.9 % ID/g
same,PC-3 flu tumor uptake,[3]; 60 min p.i.,0.3 ± 0.05 % ID/g
same,PIP tumor:bladder ratio,[3]; 60 min p.i.,(0.4)
same,PIP tumor:blood ratio,[3]; 60 min p.i.,(9)
same,PIP tumor:heart ratio,[3]; 60 min p.i.,(35)
same,PIP tumor:kidney ratio,[3]; 60 min p.i.,(0.1)
same,PIP tumor:large intestine ratio,[3]; 60 min p.i.,(13)
same,PIP tumor:liver ratio,[3]; 60 min p.i.,(1)
same,PIP tumor:lung ratio,[3]; 60 min p.i.,(13)
same,PIP tumor:muscle ratio,[3]; 60 min p.i.,(13)
same,PIP tumor:pancreas ratio,[3]; 60 min p.i.,(21)
same,PIP tumor:small intestine ratio,[3]; 60 min p.i.,(11)
same,PIP tumor:spleen ratio,[3]; 60 min p.i.,(1)
same,PIP tumor:stomach ratio,[3]; 60 min p.i.,(26)
same,PIP:flu ratio,[3]; 60 min p.i.,21
same,bladder uptake,[3]; 60 min p.i.,17 ± 21 % ID/g
same,blood uptake,[3]; 60 min p.i.,0.7 ± 0.5 % ID/g
same,heart uptake,[3]; 60 min p.i.,0.2 ± 0.02 % ID/g
same,kidney uptake,[3]; 60 min p.i.,48 ± 5 % ID/g
same,large intestine uptake,[3]; 60 min p.i.,0.5 ± 0.1 % ID/g
same,liver uptake,[3]; 60 min p.i.,5.8 ± 0.6 % ID/g
same,lung uptake,[3]; 60 min p.i.,0.5 ± 0.1 % ID/g
same,muscle uptake,[3]; 60 min p.i.,0.5 ± 0.7 % ID/g
same,pancreas uptake,[3]; 60 min p.i.,0.3 ± 0.1 % ID/g
same,small intestine uptake,[3]; 60 min p.i.,0.6 ± 0.2 % ID/g
same,spleen uptake,[3]; 60 min p.i.,7.2 ± 1.6 % ID/g
same,stomach uptake,[3]; 60 min p.i.,0.25 ± 0.1 % ID/g
same,PC-3 PIP tumor uptake,[3]; 2 h p.i.,3.7 ± 1.2 % ID/g
same,PC-3 flu tumor uptake,[3]; 2 h p.i.,0.25 ± 0.1 % ID/g
same,PIP tumor:bladder ratio,[3]; 2 h p.i.,(0.3)
same,PIP tumor:blood ratio,[3]; 2 h p.i.,(9)
same,PIP tumor:heart ratio,[3]; 2 h p.i.,(25)
same,PIP tumor:kidney ratio,[3]; 2 h p.i.,(0.1)
same,PIP tumor:large intestine ratio,[3]; 2 h p.i.,(19)
same,PIP tumor:liver ratio,[3]; 2 h p.i.,(0.3)
same,PIP tumor:lung ratio,[3]; 2 h p.i.,(4)
same,PIP tumor:muscle ratio,[3]; 2 h p.i.,(19)
same,PIP tumor:pancreas ratio,[3]; 2 h p.i.,(25)
same,PIP tumor:small intestine ratio,[3]; 2 h p.i.,(12)
same,PIP tumor:spleen ratio,[3]; 2 h p.i.,(1)
same,PIP tumor:stomach ratio,[3]; 2 h p.i.,(13)
same,PIP:flu ratio,[3]; 2 h p.i.,15
same,bladder uptake,[3]; 2 h p.i.,11 ± 8 % ID/g
same,blood uptake,[3]; 2 h p.i.,0.4 ± 0.2 % ID/g
same,heart uptake,[3]; 2 h p.i.,0.15 ± 0.05 % ID/g
same,kidney uptake,[3]; 2 h p.i.,29 ± 12 % ID/g
same,large intestine uptake,[3]; 2 h p.i.,0.2 ± 0.1 % ID/g
same,liver uptake,[3]; 2 h p.i.,11.7 ± 7.0 % ID/g
same,lung uptake,[3]; 2 h p.i.,1.0 ± 0.9 % ID/g
same,muscle uptake,[3]; 2 h p.i.,0.2 ± 0.1 % ID/g
same,pancreas uptake,[3]; 2 h p.i.,0.15 ± 0.03 % ID/g
same,small intestine uptake,[3]; 2 h p.i.,0.3 ± 0.2 % ID/g
same,spleen uptake,[3]; 2 h p.i.,4.4 ± 1.2 % ID/g
same,stomach uptake,[3]; 2 h p.i.,0.3 ± 0.1 % ID/g
same,PC-3 PIP tumor uptake,[3]; 5 h p.i.,3.5 ± 2.3 % ID/g
same,PC-3 flu tumor uptake,[3]; 5 h p.i.,0.1 ± 0.1 % ID/g
same,PIP tumor:bladder ratio,[3]; 5 h p.i.,(0.7)
same,PIP tumor:blood ratio,[3]; 5 h p.i.,(117)
same,PIP tumor:heart ratio,[3]; 5 h p.i.,(117)
same,PIP tumor:kidney ratio,[3]; 5 h p.i.,(0.3)
same,PIP tumor:large intestine ratio,[3]; 5 h p.i.,(6)
same,PIP tumor:liver ratio,[3]; 5 h p.i.,(3.5)
same,PIP tumor:lung ratio,[3]; 5 h p.i.,(35)
same,PIP tumor:muscle ratio,[3]; 5 h p.i.,(35)
same,PIP tumor:pancreas ratio,[3]; 5 h p.i.,(70)
same,PIP tumor:small intestine ratio,[3]; 5 h p.i.,(35)
same,PIP tumor:spleen ratio,[3]; 5 h p.i.,(3.5)
same,PIP tumor:stomach ratio,[3]; 5 h p.i.,(88)
same,PIP:flu ratio,[3]; 5 h p.i.,35
same,bladder uptake,[3]; 5 h p.i.,5.2 ± 8.9 % ID/g
same,blood uptake,[3]; 5 h p.i.,0.03 ± 0.00 % ID/g
same,heart uptake,[3]; 5 h p.i.,0.03 ± 0.01 % ID/g
same,kidney uptake,[3]; 5 h p.i.,14 ± 9 % ID/g
same,large intestine uptake,[3]; 5 h p.i.,0.6 ± 0.6 % ID/g
same,liver uptake,[3]; 5 h p.i.,1.0 ± 0.6 % ID/g
same,lung uptake,[3]; 5 h p.i.,0.1 ± 0.1 % ID/g
same,muscle uptake,[3]; 5 h p.i.,0.1 ± 0.1 % ID/g
same,pancreas uptake,[3]; 5 h p.i.,0.05 ± 0.03 % ID/g
same,small intestine uptake,[3]; 5 h p.i.,0.1 ± 0.04 % ID/g
same,spleen uptake,[3]; 5 h p.i.,1.0 ± 0.6 % ID/g
same,stomach uptake,[3]; 5 h p.i.,0.04 ± 0.02 % ID/g
same,uptake pattern in PET-CT,[5],"easily observed within PIP tumor, none within flu tumor, high renal uptake and a modest degree of liver uptake; also recorded: uptake within the PSMA+ PIP tumor only"
"O=C(O)CCC(NC(=O)NC(CCCCNC(=O)c1ccc([125I])cc1)C(=O)O)C(=O)O (stereo not drawn) [[^125I]3, 2-{3-[1-carboxy-5-(4-[^125I]iodo-benzoylamino)-pentyl]-ureido}-pentanedioic acid]",radiopharmaceutical uptake in SPECT-CT image,[6],intense uptake in the PC-3 PIP and absence of uptake in the PC-3 flu tumor; also recorded: uptake within the PSMA+ PIP tumor only
